target: T1, human RIP1 kinase domain (2-375) (Homo sapiens, UniProt Q13546); experiment: RIP1 kinase inhibition biochemical assay (Transcreener ADP, fluorescence polarization); details: Ki app (Morrison tight-binding fit); 50 nM enzyme, 50 uM ATP, 2 hours incubation
T1 construct: Purified human RIP1 kinase domain (2-375) (50 nM); made in house; host or cells: baculovirus-infected insect cells
T1 sequence (Q13546 2-375): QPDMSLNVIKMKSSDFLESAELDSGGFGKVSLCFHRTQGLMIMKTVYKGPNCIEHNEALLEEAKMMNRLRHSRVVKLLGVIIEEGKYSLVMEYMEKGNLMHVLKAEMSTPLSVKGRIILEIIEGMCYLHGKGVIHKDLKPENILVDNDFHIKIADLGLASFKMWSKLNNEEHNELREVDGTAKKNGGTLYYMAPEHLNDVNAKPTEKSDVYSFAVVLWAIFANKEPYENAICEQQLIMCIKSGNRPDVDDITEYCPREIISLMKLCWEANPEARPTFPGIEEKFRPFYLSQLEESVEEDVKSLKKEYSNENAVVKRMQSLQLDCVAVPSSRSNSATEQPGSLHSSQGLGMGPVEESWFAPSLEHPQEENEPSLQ
Method in brief: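 Baculovirus-expressed human RIP1 kinase domain (2-375), 50 nM, incubated 2 h with compounds in pH 7.5 Hepes, 30 mM MgCl2, 50 uM ATP, 0.5% DMSO. ADP detected by Transcreener fluorescence-polarization tracer displacement; Ki^app from Morrison tight-binding fit.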

Row | SMILES | Ki [nM]
1 | CC(C)OCc1nc2n(n1)[C@H](c1ccccc1)C[C@@H]2F [Example 37, (5S,7S)-7-fluoro-2-(isopropoxymethyl)-5-phenyl-6,7-dihydro-5H-pyrrolo[1,2-b][1,2,4]triazole] | 3000
2 | Cn1ccnc1-c1nc2n(n1)[C@H](c1ccccc1)C[C@@H]2F (single isomer, unassigned) [Example 61] | 820
3 | F[C@H]1C[C@@H](c2ccccc2)n2nc(-c3cnoc3)nc21 (single isomer, unassigned) [Example 99] | 140
4 | Fc1ccccc1[C@@H]1C[C@H](F)c2nc(CC3CC3(F)F)nn21 (stereo partly drawn) [Example 112, (5S,7S)-2-[(2,2-difluorocyclopropyl)methyl]-7-fluoro-5-(2-fluorophenyl)-6,7-dihydro-5H-pyrrolo[1,2-b][1,2,4]triazole] | 4.5
5 | C[C@@H]1C[C@H]1c1nc2n(n1)[C@H](c1ccccc1)C[C@@H]2F (single isomer, unassigned) [Example 96] | 63
6 | CC[C@@](C)(F)c1nc2n(n1)[C@H](c1ccccc1)C[C@@H]2F (single isomer, unassigned) [Example 32] | 18
7 | N#CCOCc1nc2n(n1)[C@H](c1ccccc1)C[C@@H]2F (racemic) [Example 51, 2-[(7-fluoro-5-phenyl-6,7-dihydro-5H-pyrrolo[1,2-b][1,2,4]triazol-2-yl)methoxy]acetonitrile] | 120
8 | CC[C@](C)(F)c1nc2n(n1)[C@H](c1ccccc1)C[C@@H]2F (single isomer, unassigned) [Example 27] | 33
9 | O[C@H](c1nc2n(n1)[C@H](c1ccccc1)C[C@@H]2F)C1CC1 (single isomer, unassigned) [Example 34] | 904
10 | Fc1cnn(-c2nc3n(n2)[C@H](c2ccccc2)C[C@@H]3F)c1 (single isomer, unassigned) [Example 58] | 9
11 | F[C@@H]1C[C@H]1C(F)(F)c1nc2n(n1)[C@H](c1ccccc1)C[C@@H]2F (racemic) [Example 23, (5S,7S)-2-[difluoro-(rac-(1R,2R)-2-fluorocyclopropyl)methyl])-7-fluoro-5-phenyl-6,7-dihydro-5H-pyrrolo[1,2-b][1,2,4]triazole] | 4
12 | F[C@H]1C[C@@H](c2ccccc2)n2nc(CCC(F)(F)F)nc21 (single isomer, unassigned) [Example 18] | 12
13 | C=Cc1nc2n(n1)[C@H](c1ccccc1)C[C@@H]2F (single isomer, unassigned) [Example 50] | 220
14 | OC(c1nc2n(n1)[C@H](c1ccccc1)C[C@@H]2F)[C@@H]1C[C@H]1F (stereo partly drawn) [Example 108, [(1S,2R)-2-fluorocyclopropyl]-[(5S,7S)-7-fluoro-5-phenyl-6,7-dihydro-5H-pyrrolo[1,2-b][1,2,4]triazol-2-yl]methanol] | 120
15 | F[C@H](c1nc2n(n1)[C@H](c1ccccc1)C[C@@H]2F)C1CC1 (single isomer, unassigned) [Example 109] | 12
16 | N#CC1(Cc2nc3n(n2)[C@H](c2ccccc2)C[C@@H]3F)CC1 (single isomer, unassigned) [Example 47] | 95
17 | N#CCCc1nc2n(n1)[C@H](c1ccccc1)C[C@@H]2F (single isomer, unassigned) [Example 22] | 11

— US11673892B2, “Bicyclic compounds for use as RIP1 kinase inhibitors” (Genentech, Inc., priority 2017, dated 2023)
